Entries after “also recorded” stand apart in the source; their conditions may differ.
Assays:
[1] = system: CAM blood vessels (angiogenesis); assay: Chorioallantoic membrane (CAM) model, drug-impregnated methylcellulose disk, image analysis of blood vessels (Example 1); assay type: in vivo, chicken; conditions: for effect on angiogenesis / blood vessel growth vs control: 5 μg each per disk; for Blood Vessel Mean Length / Blood Vessel Number / Blood Vessel Length: 48 hours, mean ± SEM; for Blood Vessel Length: total length
Experimental: (§1) The CAM model utilized in these studies has been described by Mazo et al. (FASEB J. 13: A527, 1999). In brief, fertilized white broiler chicken eggs were obtained from a local hatchery and kept at room temperature for 48 hours. The outside of the shells were washed with soap, and placed in a 70% ethyl alcohol bath for 30 seconds. The eggs were incubated at 37° C. for three days and rotated 180 degrees three times daily. After incubation, the eggs were cleansed with an iodine solution and dried on a sterile tray. The eggs were cracked, and the embryos explanted into spherical plastic 100 mm×25 mm weigh boats. Specimens were covered with a plastic lid, placed in a humidified chamber at 37° C., and maintained for 48 to 72 hours until the CAM achieved at least a 10 mm diameter.
Methylcellulose disks were prepared as reported by Mazo et al. (FASEB J. 13: A527, 1999). […] These doses were selected on the basis of prior animal and culture studies (Zagon I. S. et al., Am. J Physiol, 270: R22-R32 (1996); McLaughlin P. J. et al., Int. J. Oncol., 14: 991-998 (1999)). An equivalent volume of distilled water was utilized as a control (n=13). Another series of experiments employed retinoic acid (RA: 1 μg) (Oikawa T. et al., Cancer Letters, 48: 157-162 (1989)) (n=12), VEGF (1 μg) (Wilting J. et al., Cell Tissue Res., 274: 163-174 (1993)) (n=10) and an equivalent volume of water (n=10) to validate the CAM model employed, and to provide an internal comparison to the potential angiogenic effects of OGF with other known angioactive agents. These methylcellulose solutions were placed on the tips of 3.2 mm diameter Teflon rods and allowed to dry at room temperature for 1 hour under a vacuum hood. The resultant dried disks were removed from the Teflon rods and placed on the outer third of the CAM. Only one disk was placed on each CAM. The eggs were returned to the incubator for an additional 48 hours of growth prior to examination by image analysis (Mazo J. E. et al., FASEB J., 13: A527 (1999)).
Image analysis was preformed as described previously (Mazo J. E. et al., FASEB J, 13: A527 (1999)). The location of the disk was located visually on the CAM. An identifying mark was placed in the center of the disk and 2 ml of a 10% intralipid solution was injected into the CAM obscuring the underlying yolk vessels and providing an opaque white background for the superficial vessels. The CAM was imaged on a three-chip digital camera (DKC 500 Sony, Tokyo, Japan), digitized, and exported to a personal computer (FIG. 1). A 100 mm^2 region was defined around the disk in which blood vessel quantitation was performed (Optimas 6.0, Mediacybernetics, Bothell, Wash.). Calibration was achieved by imaging a ruler placed adjacent to the embryo preparation.
All arteries and veins in this designated region centered on the applied disk were analyzed. From the digitized image, an overlying mask was created and all blood vessels were traced within the region in an unblinded manner by two different individuals. The total number of blood vessels were counted and their individual lengths added to obtain total blood vessel length.
Data were exported to Microsoft Excel (Excel 97, Microsoft, Redmond, Wash.). All values were expressed as the mean±standard error of the mean. Statistical analysis was performed using the SigmaStat 1.0 statistical software package (Jandel, San Rafael, Calif.). The Mann-Whitney rank sum test or the Student t test was used to compare continuous data. Either the Fischer exact test or χ^2 test were used for dichotomous data. A p value of less than 0.05 indicated statistical significance.

[2] = system: CAM arteries and veins (angiogenesis); assay: CAM assay with separate counting of arteries and veins (Example 2); assay type: in vivo, chick; conditions: for Number of Vessels, Artery / Number of Vessels, Vein / Total Vessel Length, Artery / Total Vessel Length, Vein / Number of Vessels, A/V Ratio / Total Vessel Length, A/V Ratio: mean ± SEM
Experimental: The CAM assay described above was utilized. After 3 days of incubation, fertilized chick embryos were explanted and 3.2 mm methylcellulose disk containing a compound was placed onto the CAM surface. After 2 days of growth, the CAM arteries and veins were identified and imaged with a digital camera. Arteries and veins were identified based on the presence of vessel pulsation (arteries), color, and direction of blood flow within the vessels. The main artery was oriented vertically with flow originating inferiorly. A white 10% intralipid solution was injected into the CAM to enhance visualization. Total number and length of veins and arteries were counted and measured.

[3] = system: embryos; assay: Embryo survival after placement of drug onto the CAM; assay type: in vivo, chicken; conditions: 48 hours after placement of drug onto the CAM
Experimental: as §1
Methylcellulose disks were prepared as reported by Mazo et al. (FASEB J. 13: A527, 1999). […] These doses were selected on the basis of prior animal and culture studies (Zagon I. S. et al., Am. J Physiol, 270: R22-R32 (1996); McLaughlin P. J. et al., Int. J. Oncol., 14: 991-998 (1999)). An equivalent volume of distilled water was utilized as a control (n=13). […]

[4] = 1 μg per disk, another series of experiments

Compound: C=CCN1CC[C@]23c4c5ccc(O)c4O[C@H]2C(=O)CC[C@@]3(O)[C@H]1C5 [NAL, naloxone, reference compound]
- effect on angiogenesis / blood vessel growth vs control [1]: no effect on vessel growth

Compound: O=C1CC[C@@]2(O)[C@H]3Cc4ccc(O)c5c4[C@@]2(CCN3CC2CC2)[C@H]1O5 [Naltrexone, reference compound]
- effect on angiogenesis / blood vessel growth vs control [1]: Vessel inhibition is no longer seen
- effect on total blood vessel length vs control ([1]; 5 μg per disk): increased
- effect on total number of blood vessels vs control ([1]; 5 μg per disk): increased
- effect on mean blood vessel length vs control ([1]; 5 μg per disk, listed as NTX): decreased; also recorded: marked decrease
- Number of Vessels, Artery ([2]; 0.1 μg disk): 80 ± 6
- Number of Vessels, Vein ([2]; 0.1 μg disk): 83 ± 4
- Total Vessel Length, Artery ([2]; 0.1 μg disk): 112 ± 6 mm
- Total Vessel Length, Vein ([2]; 0.1 μg disk): 118 ± 6 mm
- Number of Vessels, Artery ([2]; 5.0 μg disk): 203 ± 7
- Number of Vessels, Vein ([2]; 5.0 μg disk): 97 ± 4
- Total Vessel Length, Artery ([2]; 5.0 μg disk): 174 ± 4 mm
- Total Vessel Length, Vein ([2]; 5.0 μg disk): 105 ± 2 mm
- effect on mean length of blood vessels ([2]; summary of Table II): decreased
- effect on total number and length of blood vessels in comparison to controls ([2]; summary of Table II): markedly increased both total number and length of all blood vessels

Compound: CC1=C(/C=C/C(C)=C/C=C/C(C)=C/C(=O)O)C(C)(C)CCC1 [Retinoic acid, retinoic acid, reference compound]
- decrease in number of blood vessels compared to control group ([1]; 1 μg per disk): 60%
- decrease in total blood vessel length compared to control group ([1]; 1 μg per disk): 33%
- increase in mean blood vessel length relative to control group ([1]; 1 μg per disk): 75%
- Blood Vessel Mean Length [1, 4]: 2.07 ± 0.13 mm
- Blood Vessel Number [1, 4]: 79 ± 10
- Blood Vessel Length [1, 4]: 153 ± 11 mm
- Number of Vessels, A/V Ratio ([2]; dose not given): 1.5 ± 0.1
- Number of Vessels, Artery ([2]; dose not given): 60 ± 5
- Number of Vessels, Vein ([2]; dose not given): 39 ± 3
- Total Vessel Length, A/V Ratio ([2]; dose not given): 1.3 ± 0.1
- Total Vessel Length, Artery ([2]; dose not given): 83 ± 5 mm
- Total Vessel Length, Vein ([2]; dose not given): 66 ± 4 mm

Compound: VEGF
- decrease in mean blood vessel length in comparison to control ([1]; 1 μg per disk): 33%
- effect on blood vessel growth vs control ([1]; 1 μg per disk): excitatory effect on blood vessel growth
- effect on calculated mean vessel length vs control ([1]; 1 μg per disk): decreased
- effect on number of blood vessels vs control ([1]; 1 μg per disk): markedly increased
- effect on total length of blood vessels vs control ([1]; 1 μg per disk): marked increase
- increase in total vessel length in comparison to control ([1]; 1 μg per disk): 22%
- increase in vessel number in comparison to control ([1]; 1 μg per disk): 83%
- Blood Vessel Mean Length [1, 4]: 0.79 ± 0.02 mm
- Blood Vessel Number [1, 4]: 358 ± 16
- Blood Vessel Length [1, 4]: 280 ± 7 mm
- Number of Vessels, A/V Ratio ([2]; 0.2 μg disk): 1.3 ± 0.1
- Number of Vessels, Artery ([2]; 0.2 μg disk): 83 ± 5
- Number of Vessels, Vein ([2]; 0.2 μg disk): 75 ± 11
- Total Vessel Length, A/V Ratio ([2]; 0.2 μg disk): 1.2 ± 0.1
- Total Vessel Length, Artery ([2]; 0.2 μg disk): 117 ± 3 mm
- Total Vessel Length, Vein ([2]; 0.2 μg disk): 109 ± 14 mm
- Number of Vessels, A/V Ratio ([2]; 1.0 μg disk): 2.2 ± 0.2
- Number of Vessels, Artery ([2]; 1.0 μg disk): 248 ± 13
- Number of Vessels, Vein ([2]; 1.0 μg disk): 120 ± 7
- Total Vessel Length, A/V Ratio ([2]; 1.0 μg disk): 1.5 ± 0.2
- Total Vessel Length, Artery ([2]; 1.0 μg disk): 173 ± 8 mm
- Total Vessel Length, Vein ([2]; 1.0 μg disk): 117 ± 5 mm

Compound: [Met^5]-enkephalin [OGF]
- effect on angiogenesis / blood vessel growth vs control [1]: blood vessel growth was suppressed; also recorded: marked inhibitory effect on angiogenesis
- decrease in number of blood vessels in comparison to controls ([1]; 5 μg per disk): 35%
- decrease in total blood vessel length in contrast to control ([1]; 5 μg per disk): 20%
- effect on mean blood vessel length vs control ([1]; 5 μg per disk): significantly increases
- effect on total blood vessel length vs control ([1]; 5 μg per disk): significantly inhibited
- effect on total number of blood vessels vs control ([1]; 5 μg per disk): significantly decreases
- increase in mean blood vessel length from control values ([1]; 5 μg per disk): 23%
- Blood Vessel Number ([1]; 5 μg per disk, 100 mm^2 region around disk): 102 ± 11
- Blood Vessel Mean Length ([1]; 5 μg per disk, 100 mm^2 region): 1.81 ± 0.13 mm
- Blood Vessel Length ([1]; 5 μg per disk, 100 mm^2 region): 179 ± 12 mm
- Number of Vessels, A/V Ratio ([2]; 1.0 μg disk): 1.1 ± 0.2
- Number of Vessels, Artery ([2]; 1.0 μg disk): 53 ± 5
- Number of Vessels, Vein ([2]; 1.0 μg disk): 56 ± 8
- Total Vessel Length, A/V Ratio ([2]; 1.0 μg disk): 1.2 ± 0.2
- Total Vessel Length, Artery ([2]; 1.0 μg disk): 84 ± 5 mm
- Total Vessel Length, Vein ([2]; 1.0 μg disk): 81 ± 11 mm
- Number of Vessels, A/V Ratio ([2]; 5.0 μg disk): 1.6 ± 0.1
- Number of Vessels, Artery ([2]; 5.0 μg disk): 79 ± 4
- Number of Vessels, Vein ([2]; 5.0 μg disk): 51 ± 2
- Total Vessel Length, A/V Ratio ([2]; 5.0 μg disk): 1.3 ± 0.1
- Total Vessel Length, Artery ([2]; 5.0 μg disk): 107 ± 4 mm
- Total Vessel Length, Vein ([2]; 5.0 μg disk): 82 ± 3 mm
- effect on artery/vein ratios for vessel number and length ([2]; summary of Table II): decreased artery/vein ratios
- effect on total number and length of blood vessels in comparison to controls ([2]; summary of Table II): decreased total number and length of blood vessels
- toxicity (embryo survival) [3]: all embryos survived

Source: patent US20010046968A1, “Opioid growth factor modulates angiogenesis” (priority 2000, published 2001)
